Source: article PMC11435393, “Novel Pyrrole Derivatives as Multi-Target Agents for the Treatment of Alzheimer’s Disease: Microwave-Assisted Synthesis, In Silico Studies and Biological Evaluation” (Pharmaceuticals, 2024)
“And” between values parts separate entries of the source, which are not always exact repeats. Identical values can stand only once. Counter-ions that a name gives are not always drawn.

Assays:
[1] = PAMPA-BBB permeability test
Description: Thus, the passive diffusion of vh0 was evaluated using an in vitro permeability test.
The in vitro Parallel Artificial Permeability Assay—blood brain barrier (PAMPA-BBB) test was carried out by PAMPA Permeability Analyzer (pIONInc, Billerica, MA, USA). The permeabilities (Pe) of the dual-acting pyrrole-based hydrazide—vh0, were evaluated considering the manufacturer BBB Protocol. Initially, the stock solutions of vh0 and reference molecules were dissolved in DMSO and diluted with Prisma HT buffer pH 7.4 (Pion Inc. Billerica, MA, USA) to reach a concentration of 50 μM. The well plates were filled with 200 µL BSB (Brain Skin Buffer). The incubation was established for 4 h at 25 °C with no stirring. The permeability of the structures was evaluated by accessing their concentrations in both the donor and acceptor phases spectrophotometrically. The permeability coefficients were calculated by PAMPA Explorer Command Software and presented as –logPe.

[2] = cited from earlier work
[3] = DPPH radical scavenging assay; conditions: 1 mg/mL, 517 nm
Description: The test observes the hydrogen donating capacity of the molecules which is shown with a decrease in the absorbance at 517 nm. The DPPH radical scavenging activity of the title hydrazide vh0 and hydrazide–hydrazones vh1-4 was determined in 1 mg/mL concentration with Trolox applied as a standard.
The radical scavenging activities of the title compounds were examined with a DPPH (2,2- diphenyl-1-picrylhydrazyl) test. A solution of DPPH has an intense violet color and a UV absorption at 515 nm could be observed. The presence of an antioxidant leads to visible decolorization of the sample and the absorption could be measured. Here, the scavenging rate of the DPPH radical was carried out by the widely employed classical protocol of Brand-Williams et al.. A 1 mg/mL of the title compounds were reacted with methonol solution of the DPPH (1 mmol/L). Thereafter, the obtained mixture was left in a dark palce for 15 min. The absorbance was assessed at 517 nm. Three measurements were conducted for each sample and Trolox was used as a standard.

[4] = ABTS radical scavenging assay; conditions: 1 mg/mL, 734 nm
Description: The radical scavenging properties of the newly synthesized structures were also calculated with the help of a ABTS test according to a modified method of Arnao et al.. The tests were conducted in methanol at room temperature. The absorbance of the solutions was measured at λ = 734 nm. The stable ABTS radical was produced by mixing 7 mmol/L solution of ABTS and 2.4 mmol/L solution of potassium persulphate, which were allowed to react for 14 h in the dark at room temperature. The working solutions were made of 2 mL of the stock solution diluted in 50 mL of methanol with an absorbance of 0.30 ± 0.04 units at […]. In total, 1 mL of the ABTS working solution was allowed to react with the pyrrole derivatives with concentrations of 1 mg/mL for 10 min. The inhibition percentage was calculated by applying the same formula as the DPPH assay.

human recombinant MAOB = molecular target: T1, human recombinant MAOB (Homo sapiens, UniProt P27338); assay: biochemical; type: biochemical; conditions: for hMAOB inhibition (decrease of hMAOB activity vs control): 1 μM; for IC50: mean ± SD, 2 h exposure, read-out: IC50 (EC50) hMAOB
T1 sequence (P27338 1-520): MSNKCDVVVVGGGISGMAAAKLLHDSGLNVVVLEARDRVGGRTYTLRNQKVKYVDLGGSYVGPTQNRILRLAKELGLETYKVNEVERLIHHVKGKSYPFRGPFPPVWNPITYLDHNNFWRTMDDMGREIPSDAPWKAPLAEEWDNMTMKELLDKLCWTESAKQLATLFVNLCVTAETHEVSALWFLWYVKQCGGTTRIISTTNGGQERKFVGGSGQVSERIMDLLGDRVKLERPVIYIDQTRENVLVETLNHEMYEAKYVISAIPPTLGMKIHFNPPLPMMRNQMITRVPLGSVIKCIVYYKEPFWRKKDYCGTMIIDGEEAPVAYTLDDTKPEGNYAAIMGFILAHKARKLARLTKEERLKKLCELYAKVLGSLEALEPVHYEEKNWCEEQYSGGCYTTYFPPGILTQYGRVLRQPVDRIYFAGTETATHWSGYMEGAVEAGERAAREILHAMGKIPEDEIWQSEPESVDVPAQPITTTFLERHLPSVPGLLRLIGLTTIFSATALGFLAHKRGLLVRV
Description: The title compounds were tested for hMAOB activities by an in vitro method.
(§1) The examined compounds were evaluated for possible inhibitory capacity on human recombinant MAOA and MAOB enzymes by using the Amplex UltraRed (Sigma Aldrih and Acros, Merck KGaA, Darmstadt, Germany) reagent with some modifications. All reagents were prepared in accordance with the producer’s instructions. As a substrate the tyramine hydrochloride was used for hMAO-B and p-benzylamine for hMAO-A. The reaction mixture included a stock solution of Amplex Red, the reaction buffer at pH 7.4 and the storage solution of horseradish peroxidase (10 U/mL). Five concentrations of the exam compounds were applied. The combination: compounds + hMAOA/B was placed in a 96-well plate, and then the plate was incubated for 30 min (dark, at 37 °C). The reaction was started by the addition of 50 μL of the mix solution: Amplex Red, horseradish peroxidase, and tyramine/p-benzylamine, as an enzyme substrate, in the reaction buffer. The fluorescence was measured every 30 min until 150 min, in dark, while shaking the reaction mixture at constant temperature of 37 °C. The fluorimetric measurements were assessed using a Synergy 2 Microplate Reader (BioTek, Winooski, VT, USA).
(§2) The in vitro results (MAO-A, MAO-B and AChE inhibitory capacities) were expressed as a mean ± SD (n = 3). Values of p < 0.05 were considered statistically significant.

human recombinant MAOA = molecular target: T2, human recombinant MAOA (Homo sapiens, UniProt P21397); assay: hMAOA enzyme assay (Amplex UltraRed, fluorimetric); type: biochemical; conditions: mean ± SD; read-out: IC50 (EC50) hMAOA
T2 sequence (P21397 1-527): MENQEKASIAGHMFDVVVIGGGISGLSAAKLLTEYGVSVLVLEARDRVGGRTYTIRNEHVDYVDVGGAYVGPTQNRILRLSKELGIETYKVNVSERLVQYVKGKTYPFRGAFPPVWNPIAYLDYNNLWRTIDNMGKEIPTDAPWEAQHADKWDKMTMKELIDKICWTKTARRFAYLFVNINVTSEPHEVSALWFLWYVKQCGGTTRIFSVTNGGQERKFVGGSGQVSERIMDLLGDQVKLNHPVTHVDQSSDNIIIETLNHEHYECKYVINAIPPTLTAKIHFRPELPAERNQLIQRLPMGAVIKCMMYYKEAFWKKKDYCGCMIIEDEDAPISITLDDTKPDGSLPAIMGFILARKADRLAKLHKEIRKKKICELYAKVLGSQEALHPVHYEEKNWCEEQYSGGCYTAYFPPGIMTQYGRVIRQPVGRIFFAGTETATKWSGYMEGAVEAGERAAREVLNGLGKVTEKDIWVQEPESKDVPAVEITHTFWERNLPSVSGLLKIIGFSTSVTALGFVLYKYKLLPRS
Description: To observe the selectivity index of the title compounds, in vitro tests against MAO-A were carried out. The novel molecules were tested in the same concentrations as applied in the MAO-B evaluations—1 μM.
as §1, §2

eeAChE = eeAChE (Electrophorus electricus, UniProt O42275); assay: biochemical; conditions: for inhibition at 10 µM: read-out: AChE inhibition; for IC50 / IC50 (EC50) AChE: mean ± SD; for IC50: read-out: IC50 (EC50) AChE; for inhibition at 10 µM / AChE inhibition: 10 μM
Chain of eeAChE (O42275 24-633): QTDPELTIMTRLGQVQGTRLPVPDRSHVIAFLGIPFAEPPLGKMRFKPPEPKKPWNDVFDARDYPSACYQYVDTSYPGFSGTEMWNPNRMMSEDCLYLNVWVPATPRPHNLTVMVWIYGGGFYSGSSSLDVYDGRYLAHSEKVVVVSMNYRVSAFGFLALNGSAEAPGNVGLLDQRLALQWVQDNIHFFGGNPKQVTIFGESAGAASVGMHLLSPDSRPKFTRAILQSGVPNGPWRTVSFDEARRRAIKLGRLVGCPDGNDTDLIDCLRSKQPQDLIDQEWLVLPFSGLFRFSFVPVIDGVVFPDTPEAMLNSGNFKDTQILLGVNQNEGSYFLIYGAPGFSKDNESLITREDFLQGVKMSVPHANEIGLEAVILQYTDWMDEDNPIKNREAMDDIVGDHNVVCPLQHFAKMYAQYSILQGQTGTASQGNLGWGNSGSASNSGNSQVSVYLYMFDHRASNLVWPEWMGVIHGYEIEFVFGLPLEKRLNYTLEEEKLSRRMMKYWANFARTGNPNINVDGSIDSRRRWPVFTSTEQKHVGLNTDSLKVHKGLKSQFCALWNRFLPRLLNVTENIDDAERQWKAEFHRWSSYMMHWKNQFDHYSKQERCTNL
Description: The AChE potentials of the new valine-based molecules were evaluated according to a modified Ellman’s method. Initially, stock solutions (1 mg/mL) of the new structures were diluted in DMSO and five solutions were prepared by dilutions in order to access the inhibitory potential in different concentrations. Thereafter, the pyrrole-based molecules were incubated with sodium phosphate buffer, and AChE solution for ten minutes at 37 °C. The reaction was started by the addition of 5,5-dithio-bis-(2-nitrobenzoic acid) (DTNB) (10 mM; 20 μL) and acetylthiocholine iodide (14 mM; 20 μL). […] The percent inhibition activity was measured against the blank probe. Donepezil was utilized as a standart acetylcholinesterase inhibitor. The results were expressed as a mean ± SD (n = 3). Values of p < 0.05 were observed as statistically significant.
as §2

For CC(C)NCC(O)COc1cccc2ccccc12 (stereo not drawn) [Propranolol HCl, propranolol hydrochloride, reference compound], the “PAMPA BBB −logPe” value ([1]; PAMPA, 4 h, 50 μM, pH 7.4) is listed as 4.949 ± 0.003 and the “PAMPA BBB −logPe Literature” value [2] is listed as 3.7.
With Cc1c(C)c2c(c(C)c1O)CCC(C)(C(=O)O)O2 (stereo not drawn) [Trolox, reference compound] the “DPPH radical scavenging activity” value [3] was 90.07% and the ABTS radical-binding activity [4] was 100%.
With CCOC(=O)c1cc(-c2ccc(Br)cc2)n(C(C(=O)NN)C(C)C)c1C (stereo not drawn) [vh0] the “DPPH radical scavenging activity” value [3] was 76.10%, the ABTS radical-binding activity [4] was 99.40% and the “SI: hMAOB selectivity index = IC50(hMAO-A)/IC50(hMAO-B)” value (human recombinant MAOB) was >150. For the same compound, the “hMAOB inhibition (decrease of hMAOB activity vs control)” value (human recombinant MAOB) was 30%, the IC50 (human recombinant MAOB) was 0.665 ± 0.2 µM and the IC50 (human recombinant MAOA) was > 100 µM. The inhibition at 10 µM (eeAChE) was 62%, the IC50 (eeAChE) was 4.15 ± 1.31 µM and the BBB permeability class ([1]; PAMPA-BBB) was “medium (When 6 < –logPe < 5 the molecule is identified with a medium permeability)”. For the same compound, the “PAMPA BBB −logPe” value ([1]; pH 7.4, 50 μM, 4 h at 25 °C) was 5.451 and 5.451 ± 0.005.
With CCOC(=O)c1cc(-c2ccc(Br)cc2)n(C(C(=O)N/N=C/c2ccc(Cl)cc2)C(C)C)c1C (stereo not drawn) [vh1] the ABTS radical-binding activity [4] was 73.67%, the “SI: hMAOB selectivity index = IC50(hMAO-A)/IC50(hMAO-B)” value (human recombinant MAOB) was >134 and the “hMAOB inhibition (decrease of hMAOB activity vs control)” value (human recombinant MAOB) was “moderate activity”. For the same compound, the IC50 (human recombinant MAOB) was 0.744 ± 0.18 µM, the IC50 (human recombinant MAOA) was > 100 µM and the inhibition at 10 µM (eeAChE) was 19%. The IC50 (eeAChE) was 18.8 ± 0.91 µM.
With CCOC(=O)c1cc(-c2ccc(Br)cc2)n(C(C(=O)N/N=C/c2cccc(F)c2)C(C)C)c1C (stereo not drawn) [vh2] the “SI: hMAOB selectivity index = IC50(hMAO-A)/IC50(hMAO-B)” value (human recombinant MAOB) was >1, the IC50 (human recombinant MAOB) was > 100 µM and the IC50 (human recombinant MAOA) was > 100 µM. For the same compound, the AChE inhibition (eeAChE) was “weak AChE blocking activity”, the “IC50 (EC50) AChE” value (eeAChE) was “inactive” and the IC50 (eeAChE) was > 100 µM.
With CCOC(=O)c1cc(-c2ccc(Br)cc2)n(C(C(=O)N/N=C/c2ccc(OC)cc2)C(C)C)c1C (stereo not drawn) [vh3] the ABTS radical-binding activity [4] was 58.27%, the “SI: hMAOB selectivity index = IC50(hMAO-A)/IC50(hMAO-B)” value (human recombinant MAOB) was >1 and the IC50 (human recombinant MAOB) was > 100 µM. For the same compound, the IC50 (human recombinant MAOA) was > 100 µM, the AChE inhibition (eeAChE) was “weak AChE blocking activity” and the inhibition at 10 µM (eeAChE) was 26%. It also gave an IC50 (eeAChE) of 16.3 ± 2.15 µM.
In the case of CCOC(=O)c1cc(-c2ccc(Br)cc2)n(C(C(=O)N/N=C/c2ccc(OC)cc2OC)C(C)C)c1C (stereo not drawn) [vh4], the “SI: hMAOB selectivity index = IC50(hMAO-A)/IC50(hMAO-B)” value (human recombinant MAOB) is reported as >1, the IC50 (human recombinant MAOB) is reported as > 100 µM and the IC50 (human recombinant MAOA) is reported as > 100 µM. For the same compound, the “IC50 (EC50) AChE” value (eeAChE) was “inactive” and the IC50 (eeAChE) was > 100 µM.
